For assay [1], the system named is SKOV3 human ovarian cancer cells. In words: Tumour killing assay (TKA), SKOV3 spheroid / PBMC co-culture. Type of assay: cell-based. Conditions: STM3480 0.05 micromolar, FIG. 1 and 2. The procedure:
This experiment evaluates the effects of human donor Peripheral Blood Mononuclear Cells (PBMCs) to attack and kill fluorescently-labelled tumour cells in a co-culture assay. Briefly, test agents are incubated at different concentrations with SKOV3 human ovarian cancer cells in the presence or absence of human donor PBMCs and tumour growth is monitored continuously by real time imaging of the NucLight Red-labelled SKOV3 cells for several days.
NucLight Red (Incucyte, Essen Biosciences)-transduced SK-OV-3 (SK-OV-3-NLR) cells were transferred into Ultra-low attachment 96 well plates with spontaneous spheroid formation occurring over 48 hours. Peripheral blood mononuclear cells (PBMC) were isolated from healthy single donor buffy coats by density separation. Prior to co-culture of SK-OV-3-NLR spheroids with PBMC, SK-OV-3-NLR spheroids were treated with 10 ng/ml of interferon gamma (IFNγ). All treatments, including STM3480 and Pembrolizumab, were added at the point of co-culture in a final total volume of 200 μl/per well. Assay plates were transferred into an IncuCyte S3 and images were collected every 2 hours for 7 days. Following experimental completion, an analysis definition was applied to quantify the Total NLR Integrated Intensity present on a per well basis. Changes in spheroid size were quantified by plotting Total NLR Integrated Intensity against time.

Assay [2] deals with EMT6 mouse breast cancer. In words: Subcutaneous EMT6 breast cancer syngeneic model, anti-tumour efficacy. The assay is classed as in vivo. The note with it: 10 per group. An excerpt: (§1) The in vivo effect of METTL3 inhibition in combination with anti-PD1 immune checkpoint inhibitor was investigated using syngeneic mouse tumour models in immune-competent hosts. Mouse tumour models can be grown in appropriate host strains and are widely used to investigate the effects of therapeutic agents on the immune system and cancer growth. There are a limited range of mouse syngeneic tumour models available, far fewer than human cell lines, and they are widely used in the art to support potential clinical utility of immune stimulatory approaches across multiple indications. We exemplify the potential role of STM3480 and combinations with immune checkpoint inhibitors such as anti-PD-1 antibodies in multiple tumour models including A20 (murine B cell lymphoma), EMT-6 (murine breast cancer) and CT-26 (murine colorectal cancer).
The objective of this study is to assess the anti-tumour efficacy of STM3480 in combination with anti-PD1 in subcutaneous EMT6 mouse breast cancer model in female BALB/c mice.
EMT6 (#ATCC CRL-2755) mouse breast cancer cells were cultured in (Waymouth's MB 752/1 Medium with 2 mM L-glutamine, 85%; foetal bovine serum (non-heat inactivated), 15%) media. […]
(§2) Tumours were measured three times a week and tumour volumes estimated using the formula 0.5 (L×W^2) by measuring the tumour in two dimensions using electronic callipers for the duration of the study. […]

For assay [3], the system named is CT26 mouse colorectal cancer. In words: Subcutaneous CT26 colorectal cancer syngeneic model, anti-tumour efficacy. Type of assay: in vivo. Conditions: 10 per group.
Excerpt: as §1
The objective of this study is to assess the anti-tumour efficacy of STM3480 in combination with anti-PD1 in subcutaneous CT26 mouse colorectal cancer model in female BALB/c mice. CT26.WT (CRL-2638) mouse […] cells were cultured in (RPMI—1640+10% FBS+2 mM L-Glutamine) media. […]
as §2

For assay [4], the system named is Kasumi1 AML cell line. Kind of assay: AML cell viability, CellTiter-Glo combination matrix, Kasumi1. The assay is classed as cell-based. The protocol:
(§3) The sensitivity of AML cell lines to combinations of METTL3 inhibitor and standards of care was determined as described. Dose response curves of venetoclax were determined either alone or in the presence of different concentrations of METTL3 inhibitor that are known to be active in cells.
(§4) Synergistic interactions occur when the IC50 value decreases in the presence of METTL3 inhibitor. […] Antagonistic interactions occur when the IC50 value increases in the presence of METTL3 inhibitor.
(§5) 24 h before cell treatment, homogenize, stain with Trypan blue and count viable cells using CellOMeter Auto T4. Dilute cells in media at 400 000 cells/ml to ensure an exponential growth the day after.
(§6) On treatment day, homogenize, stain with Trypan blue and count viable cells using CellOMeter Auto T4. Dilute to the proper cell seeding density according to Table 6 in cell media.
(§7) • Dispense drug (see Table 7) and METTL3 inhibitor in semi-log dose-response matrix and DMSO in 384-well plates using D300e Nanodispenser (Tecan). • 6× compound solution preparation: add 40 μL of cell medium in compound-containing plates and homogenize using the ViaFlo device (Integra) • Dispense 30 μl of cell suspension per well in three replicate 384-well white Ultra-Low-Attachment plates (Sbio) using ViaFlow device (Integra) • Transfer 6 μL of the 6× compound solution in each 30 μL cell suspension-containing plate. • Incubate at 37° C. 5% CO2 for 3 to 5 days.
(§8) • Add 35 μL CellTiter-Glo (Promega) in wells (vol/vol) using ViaFlo device (Integra). • Incubate at RT 10 min in the dark, with agitation the first minute, and read luminescence on the Ensight device (Perkin Elmer).
(§9) Raw data were converted to % viability by normalization to DMSO controls. IC50 determination was performed using GraphPad Prism and fitting curves to the standard nonlinear regression four parameter equation (Y=Bottom+(Top-Bottom)/(1+(IC50/X)^HillSlope)) least squares method, and synergy was assessed by comparison of IC50 values of the standard of care in the presence or absence of different concentrations of METTL3 inhibitor (see FIGS. 12 to 19).
In general terms: ATP-based viability assays read luminescence as a measure of living cells.

In assay [5] the test system is MOLM13 AML cell line. In words: AML cell viability, CellTiter-Glo combination matrix, MOLM13. The assay is classed as cell-based. Conditions: MOLM13 AML cell line. The protocol:
as §3, §4, §5, §6, §7, §8, §9

On to `O=C(NCc1ccc2cc(CNCC3CCC3)[nH]c2c1)c1cc(=O)n2ccccc2n1` [STM3480, N-[(2-{[(cyclobutylmethyl)amino]methyl}-1H-indol-6-yl)methyl]-4-oxo-4H-pyrido[1,2-a]pyrimidine-2-carboxamide], for which the “tumour viability (normalized NucLight Red [NLR] fluorescence) against time” value in assay [1] is listed as “greater anti-tumour effect compared to vehicle”. Moreover, in assay [2] (EMT6, female BALB/c mice, STM3480 50 mg/kg p.o., anti PD1 10 mg/kg i.p. BIW, up to 3 weeks), the “Mean tumour volume d21” value was found to be 141 mm3. Besides, the “No. mice with complete regressions” value in assay [2] (EMT6) came out at 1. Moreover, the “Mean tumour volume d28” value in assay [3] (CT26, female BALB/c mice, STM3480 50 mg/kg p.o., anti PD1 10 mg/kg i.p. BIW, up to 3 weeks) was determined as 768 mm3. Also, the “No. mice with regressions” value in assay [3] (CT26) came to 0. Also, the “cell viability with increasing concentrations of METTL3 inhibitor” value in assay [4] (Kasumi1, combination with daunorubicin) is “dose-dependent decrease”. Besides, in assay [4] (Kasumi1 AML cell line), the “interaction with 5′-azacitidine” value was “additive”, the interaction with cytarabine entry is reported as “additive”, the interaction with daunorubicin entry is reported as “additive” and the interaction with venetoclax result is on record as “synergistic”. Moreover, the interaction with venetoclax result in assay [5] was “synergistic”.

The values above are taken from patent US20240277715A1, “COMBINATION THERAPIES COMPRISING A METTL3 INHIBITOR AND A FURTHER ANTICANCER AGENT” (Storm Therapeutics Limited, priority 2021, published 2024).
